In brackets after ≈: the same amount, converted by molar mass.
Legend:
[1] = system: LU-01-0393 lung cancer patient-derived tumor tissue xenograft (PDX); experiment: In vivo pharmacodynamic study (1), LU-01-0393 PDX; design: species or system BALB/c nude mice; conditions: 120 mg/kg orally daily
Method: The in vivo pharmacodynamic experiments were performed on the BALB/c nude mice implanted subcutaneously with the LU-01-0393 lung cancer patient-derived tumor tissue xenograft (PDX).
BALB/c nude mice, female, 6-8 weeks, weighing approximately 17-21 g, were placed in a single ventilated cage (5 mice per cage) under a special pathogen free environment. All of the cages, beddings and water were disinfected before use. All of the animals were permitted free access to a standard certified commercial laboratory diet. A total of 36 mice purchased from Vital River Laboratory Animal Co., LTD, Beijing were used for the study. Each mouse was implanted subcutaneously with a tumor LU-01-0393 FP4 section (20-30 mm^3) in the right back for tumor growth. The dosing initiated when the average tumor volume reached about 150-200 mm^3. The tumor volume was measured twice a week using a two-dimensional caliper, and the volume was measured in mm^3, calculated by the following the formula: V=0.5 a×b^2, wherein, a and b were the long and short diameters of the tumor, respectively. The antitumor efficacy was determined by dividing the average increase in the tumor volume of the animals treated with the compound by the average increase in the tumor volume of the untreated animals.

[2] = system: non-small cell lung cancer NCI-H358 model; experiment: In vivo pharmacodynamic study (2), NCI-H358 model, tumor volume; design: species or system BALB/c nude mice; conditions: 60 mg/kg orally daily, Table 6-1
Method: (§1) The in vivo pharmacodynamic experiments were performed on the BALB/c nude mice implanted subcutaneously with the non-small cell lung cancer NCI-H358 model.
(§2) All of the cages, beddings and water were disinfected before use. All of the animals were permitted free access to a standard certified commercial laboratory diet. A total of 86 mice purchased from Vital River Laboratory Animal Co., LTD, Beijing were used for the study. The animal information of the experiments in Example 34 was as follows: BALB/c nude mice, female, 6-8 weeks, weighing approximately 16-18 g, were placed in a single ventilated cage (4 mice per cage) under a special pathogen free environment. All of the cages, beddings and water were disinfected before use. All of the animals were permitted free access to a standard certified commercial laboratory diet. A total of 56 mice purchased from Shanghai Lingchang Biotechnology Co., Ltd. were used for the study.
(§3) Each mouse was implanted subcutaneously with NCI-H358 tumor cells in the right back for tumor growth. The dosing initiated when the average tumor volume reached about 100-200 mm^3. […] The tumor volume was measured twice a week using a two-dimensional caliper, and the volume was measured in mm^3, calculated by the following the formula: V=0.5 a×b^2, wherein, a and b were the long and short diameters of the tumor, respectively. The antitumor efficacy was determined by dividing the average increase in the tumor volume of the animals treated with the compound by the average increase in the tumor volume of the untreated animals, and the safety of the compound was determined by the change in the body weight of the animal treated with the compound.
TGI: Tumor Growth Inhibition.

[3] = Thermodynamic solubility test (shake-flask, HPLC); type: physicochemical; conditions: phosphate buffer, aqueous buffer, thermodynamic from solid; pH = 7.4, Table 3-2; read-out: Thermodynamic solubility
Method: The thermodynamic solubility of the compounds was determined by the shake-flask method and HPLC. The solubility of the compounds is an important property that affects drug screening of compounds and the absorption of compounds in animals and humans. A saturated solution of the compound was first given and quantitatively tested by HPLC to obtain the solubility of the compound.
50 mM phosphate buffer solution, pH 7.4.
Not less than 2 mg of the sample powder was weighed into a vial of Whatman miniuniprep. If test of the thermodynamic solubility of a sample in multiple buffer solutions is required, an individual vial is required for each test.
450 μL of the buffer solution (pH 7.4) was added to each Whatman miniuniprep vial.
After the addition of the buffer solution, the Whatman miniuniprep cap with a filter was mounted and pressed above the liquid level so that the filter could contact with the buffer solution during shaking.
And the observation of the solution was recorded.
It was shaked at 550 RPM for 24 hours at room temperature (about 22 to 25° C.).
The Whatman Miniunipreps filter cap was pressed to the bottom to give the filtrate of the sample solubility solution. All sample vials should be filtered before and after insoluble substances and their leakage.
The buffer was diluted 50 folds to give a sample diluent.
Three UV standards from low to high concentration were injected into HPLC, followed by the injection of the dilutions and supernatants of the tested compounds. The tested sample was injected twice.

[4] = In vivo pharmacodynamic study (2), NCI-H358 model, animal weight; design: species or system BALB/c nude mice; conditions: 60 mg/kg orally daily
Method: as §1, §2, §3

physchem = conditions: pH 7.4, aqueous buffer, kinetic from dmso stock
NCI-H358 cells = experiment: Cell viability assay NCI-H358 (CellTiter-Glo); type: cell-based; conditions: Homo sapiens, 168 h; NCI-H358, incubated for 7 days
Method: The NCI-H358 cell line is from the cell bank of the Department of Biology of WuXi Apptec Co. Ltd. Envision Multi-Label Analyzer (PerkinElmer).
1) 100 μL of phosphate buffer solution was added to the peripheral wells of the 384-well plate and 40 μL of NCI-H358 cell suspension was added to the other wells containing 250 NCI-H358 cells. The cell plate was then placed in a carbon dioxide incubator and incubated overnight.
2) A 3-fold gradient dilution was subjected to the tested compounds using Echo. Each compound was diluted by 10 concentration gradients (diluted from 25 μM to 1.27 nM), 100 nL of which was added to the corresponding wells of the cell plate. The cell plate was then placed in a carbon dioxide incubator and incubated for 7 days.
3) 20 μL of Promega CellTiter-Glo reagent was added to each well of the cell plate, and shaken for 10 minutes away from light at room temperature to stabilize the luminescence signal. Readings were performed using a PerkinElmer Envision Multi-label Analyzer.
Table 1 provides the inhibitory activity of the compounds of the present invention against the proliferation of H358 cells.

[5] = Metabolic stability in human liver microsomes; type: in vitro ADME; conditions: 0.5 mg/mL protein, read-out: Human T1/2
Method: (§4) This assay is used to test the metabolic stability of tested substances in rats, mice and human liver microsomes.
(§5) 1) The tested compound with concentration of 1 μM was co-incubated with liver microsomes with a protein concentration of 0.5 mg/mL under a reducing coenzyme II regeneration system in a 37° C. water bath.
(§6) 2) The positive controls include: testosterone (3A4 substrate), propafenene (2D6 substrate) and diclofenac (2C9 substrate). The incubation condition of the positive controls was consistent with that of the compound.
(§7) 3) The reaction time points were: 0, 5, 10, 20, 30 and 60 minutes, and the reaction is terminated at the corresponding time point using a termination solution containing an internal standard. The compounds were also incubated with microsomes for 60 minutes without a reducing coenzyme II regeneration system and served as a negative control.
(§8) 4) Each time point was a single point (n=1).
(§9) 5) The sample was determined by LC/MS/MS, and the compound concentration was shown as the ratio of the peak area of the compound to the peak area of the internal standard (non-standard).
(§10) 6) In the project report summary, the half-life and the clearance rate would be calculated.

[6] = it has been reported; cited from earlier work
[7] = Metabolic stability in mouse liver microsomes; type: in vitro ADME; conditions: 0.5 mg/mL protein, read-out: Mice T1/2
Method: as §4, §5, §6, §7, §8, §9, §10

[8] = Metabolic stability in rat liver microsomes; type: in vitro ADME; conditions: 0.5 mg/mL protein, read-out: Rats T1/2
Method: as §4, §5, §6, §7, §8, §9, §10

CC(=O)c1c(C)c2cnc(Nc3ccc(N4CCNCC4)cn3)nc2n(C2CCCC2)c1=O [Palbociclib]
Gross tumor volume Day 0 ([1]; Day 0): 145 mm^3 | Gross tumor volume Day 7 ([1]; Day 7): 173 mm^3 | Gross tumor volume Day 14 ([1]; Day 14): 179 mm^3 | Gross tumor volume Day 20 ([1]; Day 20): 188 mm^3 | Gross tumor volume, 0 day ([2]; 0 day): 152 mm^3 | Gross tumor volume, 7 days ([2]; 7 days): 137 mm^3 | Gross tumor volume, 14 days ([2]; 14 days): 107 mm^3 | Gross tumor volume, 17 days ([2]; 17 days): 104 mm^3 | solubility thermodynamic at 24 h [3]: 65.3 µM (≈ 29.2 µg/mL) | Changes in animal weight, 0 days ([4]; 0 days): 0.0% | Changes in animal weight, 7 days ([4]; 7 days): 1.0% | Changes in animal weight, 14 days ([4]; 14 days): 0.9% | Changes in animal weight, 17 days ([4]; 17 days): 0.7% | Category Efflux transporter substrate (Caco-2 cells): Highly | Category Permeability (Caco-2 cells): Low | solubility kinetic at 24 h (physchem): 103 µM (≈ 46.1 µg/mL) | IC50 (NCI-H358 cells): 314 nM | half-life at 1 μM [5]: 44.7 min | brain permeability [6]: poor | half-life at 1 μM [7]: 53.3 min | half-life at 1 μM [8]: 47.8 min
